Results published in US20030050193A1, “Herbicide combinations comprising specific sulfonylureas” (priority 2001, published 2003).

Legend:
Type in all cases: in vivo
Veronica hederifolia = test: Herbicidal action (greenhouse trials), post-emergence, visual scoring; conditions: Example 2; application rate g of al/ha: amidosulfuron 8, cinidon-ethyl 13, A + B 8 + 13; scored approx. 4-6 weeks after application; 100% = all plants dead
Experimental: (§1) Herbicidal Action (Greenhouse Trials)
(§2) The seeds or rhizome pieces of typical harmful plants were placed into sandy loam soil in round pots, size 13, covered with soil and grown in a greenhouse under good growth conditions. After the harmful plants had emerged, they were treated, as a rule at the 2- to 3-leaf stage, with various dosages of the compositions according to the invention at a water application rate of 100 to 400 l/ha (converted),
(§3) After the treatment (approx. 4-6 weeks after application), the herbidical activity of the active compounds or active compound mixtures was scored visually by comparing the treated plots with the untreated controls. Damage and development of all above-ground parts of the plants was recorded. Scoring was done on a percentage scale (100% action=all plants dead; 50% action=50% of the plants and green plant parts dead; 0% action=no discernible action),
(§4) The results are listed in the tables below, where the activity measured for the independent use of the active compounds (A) and (B) is stated in brackets, […]

Galium aparine = test: as above; conditions: Example 1; application rate g of ai/ha: amidosulfuron 15, florasulam 4, A + B 15 + 4; scored approx. 4-6 weeks after application; 100% = all plants dead
Experimental: as §1, §2, §3, §4

Wheat = test: Crop damage in greenhouse trials, visual scoring; conditions: scored approx. 4-6 weeks after application
Experimental: as §1, §2, §3, §4

[1] = Example 1, application rate g of ai/ha: amidosulfuron 15, florasulam 4, A + B 15 + 4
[2] = Example 2, application rate g of al/ha: amidosulfuron 8, cinidon-ethyl 13, A + B 8 + 13

| Structure (SMILES) | Veronica hederifolia % activity (Veronica hederifolia) | Galium aparine % activity (Galium aparine) | Wheat % damage (Wheat; [1]) | Wheat % damage (Wheat; [2]) |
| --- | --- | --- | --- | --- |
| COc1cc(OC)nc(NC(=O)NS(=O)(=O)N(C)S(C)(=O)=O)n1 [Amidosulfuron, 1-(4,6-dimethoxypyrimidin-2-yl)-3-mesyl-(methyl)-sulfamoylurea] | 0% | 35% | 0% | 0 |
| CCOC(=O)/C(Cl)=C/c1cc(N2C(=O)C3=C(CCCC3)C2=O)ccc1Cl [Cinidon-ethyl, ethyl (Z)-2-chloro-3-[2-chloro-5-(1,2-cyclohex-1-enedicarboximido)phenyl]acrylate] | 15% |  |  | 0 |
| COc1ncc(F)c2nc(S(=O)(=O)Nc3c(F)cccc3F)nn12 [Florasulam, 2′,6′,8′-trifluoro-5-methoxy[1,2,4]triazolo[1,5-c]pyrimidine-2-sulfanilide] |  | 45% | 1% |  |
